Test results published in patent publication US20260020586A1, “METHOD OF PREPARING GRANULAR FEED ADDITIVE” (CJ CHEILJEDANG CORPORATION, priority 2020, published 2026).

Experiments:
[1] = Degree of agglomeration visually evaluated after storage; assay type: physicochemical; conditions: visual score, good: 0 to poor: 5; after 1 week at 40° C. and 60% relative humidity
pH of granules = assay type: physicochemical; conditions: granules of Table 8 (bubbling tower, different carbon dioxide input times)

## Cl.NCCCC[C@H](N)C(=O)O [Comparative Example 7, L-Lysine hydrochloride]
[1]
  Degree of agglomeration (good: 0-poor: 5): 1
pH of granules
  pH: 5.8
